Test results published in patent US9062071B2, “Substituted piperidines as HDM2 inhibitors” (Merck Sharp & Dohme Corp, priority 2011, dated 2015).
pIC50: −log10 of the molar value.

biological target: HDM2 protein (Homo sapiens, UniProt Q00987); assay: fluorescence polarization screening assay (FP IC50); assay type: binding; details: class symbols
Procedure: The compounds were evaluated to determine activity at the HDM2 protein by known methods such as the fluorescence polarization screening assay that measures the inhibitory concentration that achieves 50% of maximal activity (FP IC50) and the dissociation constant for inhibitor binding (FP Ki). [Zhang et al., J. Analytical Biochemistry 331: 138-146 (2004)].

Sequence of HDM2 protein (Q00987 whole entry): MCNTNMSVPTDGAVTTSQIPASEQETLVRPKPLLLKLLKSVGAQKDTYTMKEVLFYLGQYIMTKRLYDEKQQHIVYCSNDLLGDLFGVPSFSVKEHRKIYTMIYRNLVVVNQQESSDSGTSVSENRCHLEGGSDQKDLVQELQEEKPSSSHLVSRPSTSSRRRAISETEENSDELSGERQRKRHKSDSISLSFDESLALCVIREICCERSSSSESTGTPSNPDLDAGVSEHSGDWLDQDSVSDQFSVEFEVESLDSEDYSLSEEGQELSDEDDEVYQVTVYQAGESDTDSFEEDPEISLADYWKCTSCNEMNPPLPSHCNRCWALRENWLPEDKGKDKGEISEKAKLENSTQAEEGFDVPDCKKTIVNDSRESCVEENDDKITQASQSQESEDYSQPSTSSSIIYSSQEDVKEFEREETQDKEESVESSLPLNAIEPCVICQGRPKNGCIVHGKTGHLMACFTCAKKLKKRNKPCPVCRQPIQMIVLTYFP

| Structure (SMILES) | pIC50 |
| --- | --- |
| CCC[C@H]1N(C(=O)c2ncccc2C(F)(F)F)CCC[C@@]1(Oc1csc(C(F)(F)F)c1)C(=O)N1CCc2cc(Cl)ccc2C1CC(C)(C)C(=O)O (stereo partly drawn) [Compound A65, 3-(6-chloro-2-{[(2R,3S)-2-propyl-1-{[3-(trifluoromethyl)pyridin-2-yl]carbonyl}-3-{[5-(trifluoromethyl)thiophen-3-yl]oxy}piperidin-3-yl]carbonyl}-1,2,3,4-tetrahydroisoquinolin-1-yl)-2,2-dimethylpropanoic acid] | 7.00 to 9.00 |
| CCC[C@H]1N(C(=O)c2ncccc2C(F)(F)F)CCC[C@@]1(Oc1csc(C(F)(F)F)c1)C(=O)N1CCc2sc(Cl)cc2C1C(=O)NC (stereo partly drawn) [Compound A34, 2-chloro-N-methyl-5-{[(2R,3S)-2-propyl-1-{[3-(trifluoromethyl)pyridin-2-yl]carbonyl}-3-{[5-(trifluoromethyl)thiophen-3-yl]oxy}piperidin-3-yl]carbonyl}-4,5,6,7-tetrahydrothieno[3,2-c]pyridine-4-carboxamide] | 4.70 to 7.00 |
| CCC[C@H]1N(C(=O)c2ncccc2C(F)(F)F)CCC[C@@]1(Oc1csc(C(F)(F)F)c1)C(=O)N1Cc2ccc(F)cc2C[C@@H]1CCCC(=O)O [Compound A146, 4-[(3S)-6-fluoro-2-{[(2R,3S)-2-propyl-1-{[3-(trifluoromethyl)pyridin-2-yl]carbonyl}-3-{[5-(trifluoromethyl)thiophen-3-yl]oxy}piperidin-3-yl]carbonyl}-1,2,3,4-tetrahydroisoquinolin-3-yl]butanoic acid] | 7.00 to 9.00 |
| CCC[C@H]1N(C(=O)c2ncccc2C(F)(F)F)CCC[C@@]1(Oc1csc(C(F)(F)F)c1)C(=O)N1Cc2ccc(F)cc2C[C@@H]1C(=O)N1CCC(O)CC1 [Compound A149, 1-{[(3R)-6-fluoro-2-{[(2R,3S)-2-propyl-1-{[3-(trifluoromethyl)pyridin-2-yl]carbonyl}-3-{[5-(trifluoromethyl)thiophen-3-yl]oxy}piperidin-3-yl]carbonyl}-1,2,3,4-tetrahydroisoquinolin-3-yl]carbonyl}piperidin-4-ol] | 7.00 to 9.00 |
| CCC[C@H]1N(C(=O)c2ncccc2C(F)(F)F)CCC[C@@]1(Oc1csc(C(F)(F)F)c1)C(=O)N1Cc2ccc(Cl)cc2C[C@@H]1C[C@H](O)C(=O)O [Compound A164, (2S)-3-[(3R)-6-chloro-2-{[(2R,3S)-2-propyl-1-{[3-(trifluoromethyl)pyridin-2-yl]carbonyl}-3-{[5-(trifluoromethyl)thiophen-3-yl]oxy}piperidin-3-yl]carbonyl}-1,2,3,4-tetrahydroisoquinolin-3-yl]-2-hydroxypropanoic acid] | 7.00 to 9.00 |
| CCC[C@H]1N(C(=O)c2ncccc2C(F)(F)F)CCC[C@@]1(Oc1csc(C(F)(F)F)c1)C(=O)N1CCc2cc(Cl)ccc2C1CC(C(=O)O)C(C)C (stereo partly drawn) [Compound A180, 2-[(6-chloro-2-{[(2R,3S)-2-propyl-1-{[3-(trifluoromethyl)pyridin-2-yl]carbonyl}-3-{[5-(trifluoromethyl)thiophen-3-yl]oxy}piperidin-3-yl]carbonyl}-1,2,3,4-tetrahydroisoquinolin-1-yl)methyl]-3-methylbutanoic acid] | 4.70 to 7.00 |
| CCC[C@H]1N(C(=O)c2ncccc2C(F)(F)F)CCC[C@@]1(Oc1csc(C(F)(F)F)c1)C(=O)N1Cc2cc(F)ccc2C[C@H]1C(=O)O [Compound A128, (3S)-7-fluoro-2-{[(2R,3S)-2-propyl-1-{[3-(trifluoromethyl)pyridin-2-yl]carbonyl}-3-{[5-(trifluoromethyl)thiophen-3-yl]oxy}piperidin-3-yl]carbonyl}-1,2,3,4-tetrahydroisoquinoline-3-carboxylic acid] | 7.00 to 9.00 |
| O=C(c1ncccc1C(F)(F)F)N1CCC[C@@](Oc2csc(C(F)(F)F)c2)(C(=O)N2CCc3cc(Cl)ccc3C2)[C@H]1CCN1CCN(CC2CC2)CC1 [Compound A116, 6-chloro-2-{[(2R,3S)-2-{2-[4-(cyclopropylmethyl)piperazin-1-yl]ethyl}-1-{[3-(trifluoromethyl)pyridin-2-yl]carbonyl}-3-{[5-(trifluoromethyl)thiophen-3-yl]oxy}piperidin-3-yl]carbonyl}-1,2,3,4-tetrahydroisoquinoline] | 7.00 to 9.00 |
